According to PubChem BioAssay (NCI):
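Five compound concentrations were applied to cells in 96-well plates for 48 hours; endpoints were derived by simple linear interpolation of the resulting dose-response curve. At the GI50, growth is halved. TGI is the concentration that stops growth completely.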

Tests used:
Assay in all cases: NCI tumour cell line growth inhibition, 48 h
786-0 renal = test system: 786-0 renal
A498 renal = test system: A498 renal
A549 NSCLC = test system: A549 NSCLC
ACHN renal = test system: ACHN renal
BT-549 breast = test system: BT-549 breast
CCRF-CEM leukemia = test system: CCRF-CEM leukemia
COLO 205 colon = test system: COLO 205 colon
DU-145 prostate = test system: DU-145 prostate
HCC-2998 colon = test system: HCC-2998 colon
HCT-116 colon = test system: HCT-116 colon
HCT-15 colon = test system: HCT-15 colon
HL-60(TB) leukemia = test system: HL-60(TB) leukemia
HOP-62 NSCLC = test system: HOP-62 NSCLC
HOP-92 NSCLC = test system: HOP-92 NSCLC
HS 578T breast = test system: HS 578T breast
HT29 colon = test system: HT29 colon
IGROV1 ovarian = test system: IGROV1 ovarian
KM12 colon = test system: KM12 colon
LOX IMVI melanoma = test system: LOX IMVI melanoma
M14 melanoma = test system: M14 melanoma
MCF7 breast = test system: MCF7 breast
MDA-MB-231 breast = test system: MDA-MB-231 breast
MDA-MB-435 = test system: MDA-MB-435
MOLT-4 leukemia = test system: MOLT-4 leukemia
NCI-H23 lung = test system: NCI-H23 lung
NCI-H460 lung = test system: NCI-H460 lung
NCI-H522 lung = test system: NCI-H522 lung
NCI/ADR-RES ovarian = test system: NCI/ADR-RES ovarian
OVCAR-3 ovarian = test system: OVCAR-3 ovarian
PC-3 prostate = test system: PC-3 prostate
RPMI-8226 leukemia = test system: RPMI-8226 leukemia
SF-268 CNS = test system: SF-268 CNS
SF-295 CNS = test system: SF-295 CNS
SK-MEL-2 melanoma = test system: SK-MEL-2 melanoma
SK-MEL-5 melanoma = test system: SK-MEL-5 melanoma
SK-OV-3 ovarian = test system: SK-OV-3 ovarian
SN12C renal = test system: SN12C renal
SNB-19 CNS = test system: SNB-19 CNS
SNB-75 CNS = test system: SNB-75 CNS
SR leukemia = test system: SR leukemia
SW-620 colon = test system: SW-620 colon
T-47D breast = test system: T-47D breast
TK-10 renal = test system: TK-10 renal
U251 CNS = test system: U251 CNS
UACC-257 melanoma = test system: UACC-257 melanoma
UACC-62 melanoma = test system: UACC-62 melanoma
UO-31 renal = test system: UO-31 renal

C=C1C(=O)O[C@H]2[C@H]1CC/C(COC(=O)CCCC(=O)OC/C1=C/CC[C@@]3(C)O[C@H]3[C@H]3OC(=O)C(=C)[C@@H]3CC1)=C\CC[C@@]1(C)O[C@@H]21
GI50 (786-0 renal): 1350 nM
TGI (786-0 renal): 2790 nM
GI50 (A498 renal): 5580 nM
TGI (A498 renal): 19000 nM
GI50 (A549 NSCLC): 4460 nM
TGI (A549 NSCLC): 41700 nM
GI50 (ACHN renal): 764 nM
TGI (ACHN renal): 2030 nM
GI50 (BT-549 breast): 1370 nM
TGI (BT-549 breast): 2950 nM
GI50 (CCRF-CEM leukemia): 281 nM
TGI (CCRF-CEM leukemia): 757 nM
GI50 (COLO 205 colon): 592 nM
TGI (COLO 205 colon): 2150 nM
GI50 (DU-145 prostate): 1450 nM
TGI (DU-145 prostate): 2770 nM
GI50 (HCC-2998 colon): 2070 nM
TGI (HCC-2998 colon): 4220 nM
GI50 (HCT-116 colon): 1290 nM
TGI (HCT-116 colon): 2570 nM
GI50 (HCT-15 colon): 814 nM
TGI (HCT-15 colon): 2350 nM
GI50 (HL-60(TB) leukemia): 274 nM
TGI (HL-60(TB) leukemia): 1390 nM
GI50 (HOP-62 NSCLC): 3310 nM
TGI (HOP-62 NSCLC): 16000 nM
GI50 (HOP-92 NSCLC): 1870 nM
TGI (HOP-92 NSCLC): 3650 nM
GI50 (HS 578T breast): 3420 nM
TGI (HS 578T breast): > 100000 nM
GI50 (HT29 colon): 752 nM
TGI (HT29 colon): 2160 nM
GI50 (IGROV1 ovarian): 1660 nM
TGI (IGROV1 ovarian): 4540 nM
GI50 (KM12 colon): 2240 nM
TGI (KM12 colon): 6850 nM
GI50 (LOX IMVI melanoma): 1040 nM
TGI (LOX IMVI melanoma): 2310 nM
GI50 (M14 melanoma): 1720 nM
TGI (M14 melanoma): 4510 nM
GI50 (MCF7 breast): 500 nM
TGI (MCF7 breast): 2430 nM
GI50 (MDA-MB-231 breast): 1390 nM
TGI (MDA-MB-231 breast): 2900 nM
GI50 (MDA-MB-435): 1690 nM
TGI (MDA-MB-435): 5180 nM
GI50 (MOLT-4 leukemia): 396 nM
TGI (MOLT-4 leukemia): 2070 nM
GI50 (NCI-H23 lung): 2280 nM
TGI (NCI-H23 lung): 6670 nM
GI50 (NCI-H460 lung): 3180 nM
TGI (NCI-H460 lung): 12700 nM
GI50 (NCI-H522 lung): 678 nM
TGI (NCI-H522 lung): 2340 nM
GI50 (NCI/ADR-RES ovarian): 4630 nM
TGI (NCI/ADR-RES ovarian): > 100000 nM
GI50 (OVCAR-3 ovarian): 401 nM
TGI (OVCAR-3 ovarian): 1520 nM
GI50 (PC-3 prostate): 2860 nM
TGI (PC-3 prostate): 8370 nM
GI50 (RPMI-8226 leukemia): 362 nM
TGI (RPMI-8226 leukemia): 1500 nM
GI50 (SF-268 CNS): 2770 nM
TGI (SF-268 CNS): 15100 nM
GI50 (SF-295 CNS): 4710 nM
TGI (SF-295 CNS): > 100000 nM
GI50 (SK-MEL-2 melanoma): 2180 nM
TGI (SK-MEL-2 melanoma): 6500 nM
GI50 (SK-MEL-5 melanoma): 2250 nM
TGI (SK-MEL-5 melanoma): 5680 nM
GI50 (SK-OV-3 ovarian): 9890 nM
TGI (SK-OV-3 ovarian): > 100000 nM
GI50 (SN12C renal): 2300 nM
TGI (SN12C renal): 6920 nM
GI50 (SNB-19 CNS): 2910 nM
TGI (SNB-19 CNS): 14400 nM
GI50 (SNB-75 CNS): 2840 nM
TGI (SNB-75 CNS): > 100000 nM
GI50 (SR leukemia): 501 nM
TGI (SR leukemia): 3450 nM
GI50 (SW-620 colon): 608 nM
TGI (SW-620 colon): 2040 nM
GI50 (T-47D breast): 1190 nM
TGI (T-47D breast): 3810 nM
GI50 (TK-10 renal): 1530 nM
TGI (TK-10 renal): 3040 nM
GI50 (U251 CNS): 2920 nM
TGI (U251 CNS): 10300 nM
GI50 (UACC-257 melanoma): 2000 nM
TGI (UACC-257 melanoma): 4970 nM
GI50 (UACC-62 melanoma): 1540 nM
TGI (UACC-62 melanoma): 4530 nM
GI50 (UO-31 renal): 1110 nM
TGI (UO-31 renal): 2310 nM
